Assay results: US20020137929A1, “1 - (3-heterocyclylphenyl) isothiourea, -isourea, -guanidine and -amidine herbicidal agents” (Intellectual Property Department, BASF Aktiengesellschaft, priority 1998, published 2002)

What was measured:
ABUTH (Velvetleaf) [1] = test: Postemergence herbicidal evaluation; format: in vivo, Abutilon theophrasti; settings: postemergence
Summary of the method: (§1)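 Each compound, dispersed in an acetone/water mix (50/50) carrying 0.5% TWEEN 20, is nozzle-sprayed at 40 psi on approximately two-week-old seedlings at about 0.0156–0.500 kg/ha. Plants are assessed 4–5 weeks afterward on a 0–9 scale relative to control; duplicate tests are averaged.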

[2] = tested on: CHEAL (Lambsquarters, Common); test: Postemergence herbicidal evaluation; format: in vivo, Chenopodium album; settings: postemergence
Summary of the method: as §1

[3] = tested on: IPOHE (Morningglory, Ivyleaf); test: Postemergence herbicidal evaluation; format: in vivo, Ipomoea hederacea; settings: postemergence
Summary of the method: as §1

ECHCG (Barnyardgrass) [4] = test: Postemergence herbicidal evaluation; format: in vivo, Echinochloa crus-galli; settings: postemergence
Summary of the method: as §1

SETVI (Foxtail, Green) = test: Postemergence herbicidal evaluation; format: in vivo, Setaria viridis; settings: postemergence
Summary of the method: as §1

ORYSAT (Rice, Tebonnet) = test: Postemergence herbicidal evaluation; format: in vivo, Oryza sativa, (L.) Tebonnet; settings: postemergence
Summary of the method: as §1

ZEAMX (Corn, Field) [5] = test: Postemergence herbicidal evaluation; format: in vivo, Zea mays; settings: postemergence
Summary of the method: as §1

ABUTH (Velvetleaf) [6] = test: Preemergence herbicidal evaluation; format: in vivo, Abutilon theophrasti; settings: rated 4-5 weeks after treatment
Summary of the method: (§2)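 Preemergence soil application of compound, sprayed in aqueous acetone at rates equivalent to about 0.0156 to 0.500 kg per hectare onto freshly sown cups. Plant response was judged by eye on a 0-9 scale four to five weeks later.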

CASOB (Sicklepod) = test: Preemergence herbicidal evaluation; format: in vivo, Cassia obtusifolia; settings: rated 4-5 weeks after treatment
Summary of the method: as §2

[7] = tested on: CHEAL (Lambsquarters, Common); test: Preemergence herbicidal evaluation; format: in vivo, Chenopodium album; settings: rated 4-5 weeks after treatment
Summary of the method: as §2

[8] = tested on: IPOHE (Morningglory, Ivyleaf); test: Preemergence herbicidal evaluation; format: in vivo, Ipomoea hederacea; settings: rated 4-5 weeks after treatment
Summary of the method: as §2

ECHCG (Barnyardgrass) [9] = test: Preemergence herbicidal evaluation; format: in vivo, Echinochloa crus-galli; settings: rated 4-5 weeks after treatment
Summary of the method: as §2

[10] = tested on: GLXMAW (Soybean, Williams); test: Preemergence herbicidal evaluation; format: in vivo, Glycine max, (L.) Merr. cv Williams; settings: rated 4-5 weeks after treatment
Summary of the method: as §2

[11] = tested on: TRZAWR (Wheat, Winter, cv Riband); test: Preemergence herbicidal evaluation; format: in vivo, Triticum aestivum; settings: rated 4-5 weeks after treatment
Summary of the method: as §2

ZEAMX (Corn, Field) [12] = test: Preemergence herbicidal evaluation; format: in vivo, Zea mays; settings: rated 4-5 weeks after treatment
Summary of the method: as §2

CCOC(=O)CN1C(=O)C(C(=O)OC(C)(C)C)SC1=Nc1cc(-n2c(=O)cc(C(F)(F)F)n(C)c2=O)c(F)cc1Cl (stereo not drawn) [Compound 167, 5-Carboxy-2-{{2-chloro-5-[3,6-dihydro-3-methyl-2,6-dioxo-4-(trifluoromethyl)-1(2H)-pyrimidinyl]-4-fluorophenyl}imino}-4-oxo-3-thiazolidineacetic acid, 5-tert-butyl ethyl ester]
Herbicidal rating ABUTH (ABUTH (Velvetleaf) [1]; rate 0.0156 kg/ha): 9.0 | Herbicidal rating ABUTH (ABUTH (Velvetleaf) [1]; rate 0.0313 kg/ha): 9.0 | Herbicidal rating ABUTH (ABUTH (Velvetleaf) [1]; rate 0.0625 kg/ha): 9.0 | Herbicidal rating ABUTH (ABUTH (Velvetleaf) [1]; rate 0.1250 kg/ha): 9.0 | Herbicidal rating CHEAL ([2]; rate 0.0156 kg/ha): 4.0 | Herbicidal rating CHEAL ([2]; rate 0.0313 kg/ha): 7.0 | Herbicidal rating CHEAL ([2]; rate 0.0625 kg/ha): 9.0 | Herbicidal rating CHEAL ([2]; rate 0.1250 kg/ha): 9.0 | Herbicidal rating IPOHE ([3]; rate 0.0156 kg/ha): 9.0 | Herbicidal rating IPOHE ([3]; rate 0.0313 kg/ha): 9.0 | Herbicidal rating IPOHE ([3]; rate 0.0625 kg/ha): 9.0 | Herbicidal rating IPOHE ([3]; rate 0.1250 kg/ha): 9.0 | Herbicidal rating ECHCG (ECHCG (Barnyardgrass) [4]; rate 0.0156 kg/ha): 3.0 | Herbicidal rating ECHCG (ECHCG (Barnyardgrass) [4]; rate 0.0313 kg/ha): 3.0 | Herbicidal rating ECHCG (ECHCG (Barnyardgrass) [4]; rate 0.0625 kg/ha): 3.0 | Herbicidal rating ECHCG (ECHCG (Barnyardgrass) [4]; rate 0.1250 kg/ha): 3.0 | Herbicidal rating SETVI (SETVI (Foxtail, Green); rate 0.0156 kg/ha): 2.0 | Herbicidal rating SETVI (SETVI (Foxtail, Green); rate 0.0313 kg/ha): 4.0 | Herbicidal rating SETVI (SETVI (Foxtail, Green); rate 0.0625 kg/ha): 9.0 | Herbicidal rating SETVI (SETVI (Foxtail, Green); rate 0.1250 kg/ha): 9.0 | Herbicidal rating ORYSAT (ORYSAT (Rice, Tebonnet); rate 0.0156 kg/ha): 3.0 | Herbicidal rating ORYSAT (ORYSAT (Rice, Tebonnet); rate 0.0313 kg/ha): 3.5 | Herbicidal rating ORYSAT (ORYSAT (Rice, Tebonnet); rate 0.0625 kg/ha): 3.5 | Herbicidal rating ORYSAT (ORYSAT (Rice, Tebonnet); rate 0.1250 kg/ha): 4.0 | Herbicidal rating ZEAMX (ZEAMX (Corn, Field) [5]; rate 0.0156 kg/ha): 4.5 | Herbicidal rating ZEAMX (ZEAMX (Corn, Field) [5]; rate 0.0313 kg/ha): 5.5 | Herbicidal rating ZEAMX (ZEAMX (Corn, Field) [5]; rate 0.0625 kg/ha): 5.5 | Herbicidal rating ZEAMX (ZEAMX (Corn, Field) [5]; rate 0.1250 kg/ha): 5.5 | Preemergence herbicidal rating ABUTH (ABUTH (Velvetleaf) [6]; 0.0313 kg/ha): 0.0 | Preemergence herbicidal rating ABUTH (ABUTH (Velvetleaf) [6]; 0.0625 kg/ha): 9.0 | Preemergence herbicidal rating ABUTH (ABUTH (Velvetleaf) [6]; 0.1250 kg/ha): 9.0 | Preemergence herbicidal rating ABUTH (ABUTH (Velvetleaf) [6]; 0.2500 kg/ha): 9.0 | Preemergence herbicidal rating ABUTH (ABUTH (Velvetleaf) [6]; 0.5000 kg/ha): 9.0 | Preemergence herbicidal rating CASOB (CASOB (Sicklepod); 0.0156 kg/ha): 0.0 | Preemergence herbicidal rating CASOB (CASOB (Sicklepod); 0.0313 kg/ha): 0.0 | Preemergence herbicidal rating CASOB (CASOB (Sicklepod); 0.0625 kg/ha): 1.0 | Preemergence herbicidal rating CASOB (CASOB (Sicklepod); 0.1250 kg/ha): 1.0 | Preemergence herbicidal rating CASOB (CASOB (Sicklepod); 0.2500 kg/ha): 4.0 | Preemergence herbicidal rating CASOB (CASOB (Sicklepod); 0.5000 kg/ha): 9.0 | Preemergence herbicidal rating CHEAL ([7]; 0.0156 kg/ha): 7.0 | Preemergence herbicidal rating CHEAL ([7]; 0.0313 kg/ha): 7.0 | Preemergence herbicidal rating CHEAL ([7]; 0.0625 kg/ha): 9.0 | Preemergence herbicidal rating CHEAL ([7]; 0.1250 kg/ha): 9.0 | Preemergence herbicidal rating CHEAL ([7]; 0.2500 kg/ha): 9.0 | Preemergence herbicidal rating CHEAL ([7]; 0.5000 kg/ha): 9.0 | Preemergence herbicidal rating IPOHE ([8]; 0.0156 kg/ha): 0.0 | Preemergence herbicidal rating IPOHE ([8]; 0.0313 kg/ha): 0.0 | Preemergence herbicidal rating IPOHE ([8]; 0.0625 kg/ha): 2.0 | Preemergence herbicidal rating IPOHE ([8]; 0.1250 kg/ha): 3.0 | Preemergence herbicidal rating IPOHE ([8]; 0.2500 kg/ha): 9.0 | Preemergence herbicidal rating IPOHE ([8]; 0.5000 kg/ha): 9.0 | Preemergence herbicidal rating ECHCG (ECHCG (Barnyardgrass) [9]; 0.0156 kg/ha): 0.0 | Preemergence herbicidal rating ECHCG (ECHCG (Barnyardgrass) [9]; 0.0313 kg/ha): 0.0 | Preemergence herbicidal rating ECHCG (ECHCG (Barnyardgrass) [9]; 0.0625 kg/ha): 6.0 | Preemergence herbicidal rating ECHCG (ECHCG (Barnyardgrass) [9]; 0.1250 kg/ha): 9.0 | Preemergence herbicidal rating ECHCG (ECHCG (Barnyardgrass) [9]; 0.2500 kg/ha): 9.0 | Preemergence herbicidal rating ECHCG (ECHCG (Barnyardgrass) [9]; 0.5000 kg/ha): 8.0 | Preemergence herbicidal rating GLXMAW ([10]; 0.0156 kg/ha): 1.0 | Preemergence herbicidal rating GLXMAW ([10]; 0.0313 kg/ha): 0.0 | Preemergence herbicidal rating GLXMAW ([10]; 0.0625 kg/ha): 0.0 | Preemergence herbicidal rating GLXMAW ([10]; 0.1250 kg/ha): 4.0 | Preemergence herbicidal rating GLXMAW ([10]; 0.2500 kg/ha): 4.0 | Preemergence herbicidal rating GLXMAW ([10]; 0.5000 kg/ha): 7.0 | Preemergence herbicidal rating TRZAWR ([11]; 0.0156 kg/ha): 0.0 | Preemergence herbicidal rating TRZAWR ([11]; 0.0313 kg/ha): 0.0 | Preemergence herbicidal rating TRZAWR ([11]; 0.0625 kg/ha): 1.0 | Preemergence herbicidal rating TRZAWR ([11]; 0.1250 kg/ha): 3.0 | Preemergence herbicidal rating TRZAWR ([11]; 0.2500 kg/ha): 4.0 | Preemergence herbicidal rating TRZAWR ([11]; 0.5000 kg/ha): 5.0 | Preemergence herbicidal rating ZEAMX (ZEAMX (Corn, Field) [12]; 0.0156 kg/ha): 0.0 | Preemergence herbicidal rating ZEAMX (ZEAMX (Corn, Field) [12]; 0.0313 kg/ha): 0.0 | Preemergence herbicidal rating ZEAMX (ZEAMX (Corn, Field) [12]; 0.0625 kg/ha): 3.0 | Preemergence herbicidal rating ZEAMX (ZEAMX (Corn, Field) [12]; 0.1250 kg/ha): 3.0 | Preemergence herbicidal rating ZEAMX (ZEAMX (Corn, Field) [12]; 0.2500 kg/ha): 6.0 | Preemergence herbicidal rating ZEAMX (ZEAMX (Corn, Field) [12]; 0.5000 kg/ha): 7.0
